The values below come from PubChem BioAssay (NCI).

Some test systems named below: 786-0 renal; EKVX NSCLC; HL-60(TB) leukemia; HT29 colon; IGROV1 ovarian; KM12 colon; M14 melanoma; MCF7 breast; NCI/ADR-RES ovarian; SK-MEL-2 melanoma.
What all share (assay): NCI tumour cell line growth inhibition, 48 h

Molecules are shown by their SMILES.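 96-well plates; 48 h exposure; 5 concentrations. Endpoints by linear interpolation between flanking doses. Not reached: highest tested concentration assigned. TGI: total growth inhibition.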

As for `CSc1nnnc2ccccc12`, the TGI in the assay with 786-0 renal, in the assay on EKVX NSCLC, with HL-60(TB) leukemia, with HT29 colon, in the assay on IGROV1 ovarian and in the assay with KM12 colon was greater than 100 µM each time. In addition, the TGI in the assay with M14 melanoma, with MCF7 breast, with NCI/ADR-RES ovarian and in the assay with SK-MEL-2 melanoma was greater than 100 µM each time.

For `C=C1c2c(n(S(=O)(=O)c3ccccc3)c3ccccc23)[C@@]2(C(=O)OC)CC3C=CC2N1C3`, the TGI in the assay on 786-0 renal, with EKVX NSCLC, with HL-60(TB) leukemia, with HT29 colon, in the assay with IGROV1 ovarian and in the assay with KM12 colon was greater than 100 µM in each case. The TGI in the assay with M14 melanoma, in the assay with MCF7 breast, in the assay on NCI/ADR-RES ovarian and in the assay with SK-MEL-2 melanoma was greater than 100 µM each time.

Turning to `O/N=C1\C/C(=N\O)c2c(Br)sc(Br)c21`, the TGI is greater than 100 µM with 786-0 renal; greater than 100 µM in the assay on EKVX NSCLC; greater than 100 µM in the assay on HL-60(TB) leukemia; greater than 100 µM in the assay with HT29 colon; 97.8 µM in the assay with IGROV1 ovarian; greater than 100 µM in the assay with KM12 colon. Moreover, the TGI in the assay on M14 melanoma, in the assay on MCF7 breast, with NCI/ADR-RES ovarian and with SK-MEL-2 melanoma was greater than 100 µM throughout.

As to `CCCCCCCCCCCC(=O)N(CCCCCCCCC)CC(O)C(O)C(OC1OC(CO)C(O)C(O)C1O)C(O)CO` (stereo not given), the TGI turned out to be 32.8 µM in the assay on 786-0 renal; 31.5 µM with EKVX NSCLC; 45.8 µM with HL-60(TB) leukemia; 34.4 µM in the assay on HT29 colon; 33.6 µM in the assay on IGROV1 ovarian; 31.2 µM in the assay with KM12 colon. Besides, the TGI in the assay on M14 melanoma is 36.9 µM; with MCF7 breast, greater than 100 µM; in the assay on NCI/ADR-RES ovarian, 38.7 µM; with SK-MEL-2 melanoma, 43.9 µM.

Take `COc1ccc(NC(=O)CSC(=O)c2ccccc2)c(SCCSSCCSc2cc(OC)ccc2NC(=O)CSC(=O)c2ccccc2)c1`: the TGI in the assay with 786-0 renal, in the assay on EKVX NSCLC, with HL-60(TB) leukemia, in the assay on HT29 colon, in the assay on IGROV1 ovarian and in the assay on KM12 colon was greater than 100 µM each time. In addition, the TGI in the assay with M14 melanoma, in the assay with MCF7 breast, in the assay on NCI/ADR-RES ovarian and in the assay with SK-MEL-2 melanoma was greater than 100 µM each time.

For the molecule `CCOC(=O)c1ccc2nc3n(c2c1)C(c1c(F)cccc1F)SC3` (stereo not given), the TGI in the assay on 786-0 renal, in the assay on EKVX NSCLC, in the assay with HL-60(TB) leukemia, in the assay with HT29 colon, in the assay with IGROV1 ovarian and in the assay on KM12 colon was greater than 100 µM throughout. For the same molecule, the TGI in the assay with M14 melanoma, in the assay with MCF7 breast, with NCI/ADR-RES ovarian and in the assay on SK-MEL-2 melanoma was greater than 100 µM in each case.

With `C[Si](C)(C)OC1(C#N)c2ccccc2CCCC12CCCC2` (stereo not given), the TGI was greater than 100 µM in the assay with 786-0 renal; greater than 100 µM with EKVX NSCLC; 39.2 µM in the assay on HL-60(TB) leukemia; greater than 100 µM in the assay on HT29 colon; greater than 100 µM in the assay with IGROV1 ovarian; greater than 100 µM in the assay on KM12 colon. In addition, the TGI is greater than 100 µM with M14 melanoma, greater than 100 µM in the assay with MCF7 breast, greater than 100 µM in the assay on NCI/ADR-RES ovarian and 45.7 µM with SK-MEL-2 melanoma.

Take `O=C(CC(=O)N1N=C(c2ccccc2)C(N=Nc2ccc(S(=O)(=O)CCOS(=O)(=O)O)cc2)C1=O)Nc1ccc(Cl)cc1` (stereo not given): the TGI with 786-0 renal was greater than 100 µM; in the assay on EKVX NSCLC, greater than 100 µM; in the assay on HL-60(TB) leukemia, greater than 100 µM; in the assay with HT29 colon, greater than 100 µM; in the assay on IGROV1 ovarian it was 72.3 µM; with KM12 colon, greater than 100 µM. Besides, the TGI in the assay with M14 melanoma, in the assay on MCF7 breast, with NCI/ADR-RES ovarian and in the assay on SK-MEL-2 melanoma was greater than 100 µM in each case.

On to `COC1C(O)C(C)OC(O[C@H]2CC[C@@]3(C)C(CC[C@@H]4[C@@H]3CC[C@]3(C)[C@@H](C(C)OC5OC(CO)C(O)C(O)C5O)CC[C@]43O)C2)C1O` (stereo not given in full), for which the TGI in the assay on 786-0 renal, in the assay with EKVX NSCLC, in the assay with HL-60(TB) leukemia, in the assay on HT29 colon, with IGROV1 ovarian and in the assay with KM12 colon was greater than 25 µM throughout. Also, the TGI with M14 melanoma, in the assay with MCF7 breast, with NCI/ADR-RES ovarian and with SK-MEL-2 melanoma was greater than 25 µM each time.

Take `O=c1oc2ccccc2c(O)c1C(c1ccc(OCc2ccccc2)cc1)c1c(O)c2ccccc2oc1=O`: the TGI in the assay on 786-0 renal is greater than 100 µM; in the assay with EKVX NSCLC it was greater than 100 µM; in the assay with HL-60(TB) leukemia, 65.9 µM; in the assay with HT29 colon, greater than 100 µM; with IGROV1 ovarian it was greater than 100 µM; in the assay on KM12 colon it was greater than 100 µM. Moreover, the TGI in the assay on M14 melanoma, with MCF7 breast, in the assay with NCI/ADR-RES ovarian and in the assay with SK-MEL-2 melanoma was greater than 100 µM each time.

With `NC(=Nc1ccccc1)N/N=C/c1c[nH]c2ccccc12`, the TGI with 786-0 renal was 7.68 µM; with EKVX NSCLC it was 25 µM; in the assay on HL-60(TB) leukemia, 4.54 µM; in the assay on HT29 colon it was 1.54 µM; with IGROV1 ovarian, 32.7 µM; in the assay with KM12 colon, 5.28 µM. In addition, the TGI turned out to be 1.53 µM in the assay on M14 melanoma, 15 µM in the assay on MCF7 breast, 0.455 µM in the assay with NCI/ADR-RES ovarian and 4.95 µM with SK-MEL-2 melanoma.

For `COC(=O)NC(Cc1ccccc1)NC(=O)OC(C)(C)C` (stereo not given), the TGI in the assay with 786-0 renal, in the assay with EKVX NSCLC, in the assay on HL-60(TB) leukemia, in the assay with HT29 colon, in the assay on IGROV1 ovarian and with KM12 colon was greater than 100 µM each time. The TGI with M14 melanoma, with MCF7 breast, with NCI/ADR-RES ovarian and in the assay with SK-MEL-2 melanoma was greater than 100 µM each time.

As to `CC(=O)NC1C(OCc2ccccc2)OC(CO)C(O)C1OC(C)C(=O)NC(C(=O)NC(CCC(=O)NCCCNc1ccc([N+](=O)[O-])c2[nH]c3ccccc3c(=O)c12)C(N)=O)C(C)C` (stereo not given), the TGI in the assay on 786-0 renal, in the assay on EKVX NSCLC, in the assay with HL-60(TB) leukemia, in the assay on HT29 colon, in the assay on IGROV1 ovarian and in the assay on KM12 colon was greater than 100 µM each time. Moreover, the TGI with M14 melanoma, in the assay with MCF7 breast, in the assay with NCI/ADR-RES ovarian and in the assay with SK-MEL-2 melanoma was greater than 100 µM each time.

With `O=C1CCCC1CC(CN1CCOCC1)Sc1nnnn1-c1ccccc1` (stereo not given), the TGI is greater than 100 µM in the assay with 786-0 renal; greater than 100 µM in the assay with EKVX NSCLC; 82.2 µM in the assay with HL-60(TB) leukemia; greater than 100 µM with HT29 colon; greater than 100 µM with IGROV1 ovarian; greater than 100 µM with KM12 colon. Also, the TGI in the assay with M14 melanoma, in the assay with MCF7 breast, with NCI/ADR-RES ovarian and in the assay on SK-MEL-2 melanoma was greater than 100 µM in each case.

Take `CC1(C)CCC2=C(O1)c1ccccc1C(=Nc1ccc([N+](=O)[O-])cc1)C2=O`: the TGI is 34.1 µM with 786-0 renal; 32.7 µM in the assay with EKVX NSCLC; greater than 100 µM in the assay with HL-60(TB) leukemia; 25.2 µM in the assay on HT29 colon; greater than 100 µM in the assay with IGROV1 ovarian; 28.2 µM with KM12 colon. In addition, the TGI in the assay on M14 melanoma was 20.5 µM; with MCF7 breast, 27.7 µM; in the assay on NCI/ADR-RES ovarian, greater than 100 µM; in the assay on SK-MEL-2 melanoma, 32.8 µM.

`N=C1C=CC(=C(c2ccc(N)cc2)c2ccc(N)cc2)C=C1`: the TGI in the assay on 786-0 renal was found to be 12.9 µM; with EKVX NSCLC it was 51.4 µM; in the assay on HL-60(TB) leukemia, 36.1 µM; with HT29 colon, 14.3 µM; with IGROV1 ovarian, 31.5 µM; in the assay with KM12 colon, 13.7 µM. In addition, the TGI in the assay with M14 melanoma was 15.8 µM; in the assay with MCF7 breast, 13.2 µM; in the assay on NCI/ADR-RES ovarian, 49.3 µM; in the assay on SK-MEL-2 melanoma, 10.4 µM.

For `Clc1nc2nc(N3CCNCC3)nc(N3CCCC3)c2[nH]1`, the TGI in the assay on 786-0 renal came to 32.1 µM; in the assay on EKVX NSCLC it was 31.8 µM; in the assay with HL-60(TB) leukemia, 42.8 µM; in the assay with HT29 colon, 34.2 µM; in the assay on IGROV1 ovarian it was 32.7 µM; in the assay on KM12 colon, 35.9 µM. The TGI is 34.6 µM in the assay on M14 melanoma, 32.2 µM in the assay with MCF7 breast, greater than 100 µM in the assay on NCI/ADR-RES ovarian and 35.4 µM in the assay with SK-MEL-2 melanoma.

With `CCOC(=O)c1nc2ccccc2nc1Nc1ccc(C(=O)OC)s1`, the TGI in the assay with 786-0 renal, in the assay with EKVX NSCLC, in the assay on HL-60(TB) leukemia, in the assay on HT29 colon, in the assay on IGROV1 ovarian and in the assay on KM12 colon was greater than 100 µM each time. Further, the TGI in the assay with M14 melanoma, in the assay on MCF7 breast, in the assay on NCI/ADR-RES ovarian and in the assay on SK-MEL-2 melanoma was greater than 100 µM each time.

In the case of `N=C(N)SCc1nc(-c2ccc(Cl)cc2)no1`, the TGI was 29.3 µM with 786-0 renal; 89.4 µM in the assay with EKVX NSCLC; 37.1 µM in the assay with HL-60(TB) leukemia; 29.3 µM in the assay with HT29 colon; greater than 100 µM with IGROV1 ovarian; greater than 100 µM with KM12 colon. The TGI with M14 melanoma was 45.6 µM; in the assay with MCF7 breast it was 30.1 µM; in the assay on NCI/ADR-RES ovarian, greater than 100 µM; in the assay on SK-MEL-2 melanoma, 41.7 µM.

`C=CC(=O)N1C/C(=C\c2ccc(OC)cc2)C(=O)/C(=C/c2ccc(OC)cc2)C1`: the TGI was 4.17 µM in the assay with 786-0 renal; 40.7 µM with EKVX NSCLC; greater than 100 µM in the assay with HL-60(TB) leukemia; 2.88 µM in the assay on HT29 colon; greater than 21.4 µM in the assay on IGROV1 ovarian; 5.22 µM in the assay with KM12 colon. The TGI in the assay on M14 melanoma is 4.78 µM; in the assay on MCF7 breast, 5.01 µM; with NCI/ADR-RES ovarian, greater than 31 µM; in the assay with SK-MEL-2 melanoma it was 8.57 µM.
